Measurements: US20240366649A1, “4-ETHYNYL-3-HYDROXY-TETRAHYDROFURANYL-ADENINE PHOSPHORAMIDATES AND RELATED COMPOUNDS AND THEIR USE IN TREATING MEDICAL CONDITIONS” (ROME THERAPEUTICS, INC., priority 2021, published 2024)
Where “and” joins values, the source holds several entries; their conditions need not be identical. Equal values may be shown once.

Experiments:
Type in all cases: cell-based
[1] = test system: IFN production in THP1 TREX1 KO cells; test: Cellular assay for altering IFN production in THP1 TREX1 KO cells; settings: for change in IFN levels (figure): FIG. 6-8, % induction versus compound concentration; for EC50 / IC50: Homo sapiens; for Concentration at Max Induct.: lowest concentration at which the maximum-fold IFN induction was observed; for Maximum IFN Induction: maximum-fold IFN induction, 1 μM 5-aza-2′-deoxycytidine; for IC50: inhibitors of IFN
Experimental: (§1) THP1-Dual™ KO-TREX1 cells were purchased from Invivogen (cat #thpd-kotrex). The THP1-Dual™ KO-TREX1 cells were cultured in RPMI 1640, 10% heat-inactivated fetal bovine serum, 25 mM HEPES, 10 μg/mL Blasticidin, and […] Zeocin. THP1-Dual™ KO-TREX cells were treated with a dose titration of test compound in the presence of 1 μM 5-aza-2′-deoxycytidine (Sigma, cat #189825). Type 1 Interferon and cell viability were assessed after five days of treatment.
Stock solution of test compound was prepared in DMSO followed by a three-fold dilution in DMSO. Additional 50× dilution was prepared in cell culture media for each dilution. 10 μL of diluted test compound was then added to a 384-well plate.
(§2) THP1-Dual™ KO-TREX1 cells were treated with 1 μM 5-aza-2′-deoxycytidine. THP1-Dual™ KO-TREX1 cells (50 μL) were added to each well of the 384-well plate containing test compound titration at 10,000 cells/well. Cells were incubated at 37° C., 5% CO2 in a humidified incubator for five days. On day five, 20 μL of cell supernatant was transferred to a 384-well, white-walled plate, followed by addition to each well of 50 μL of QUANTI-LUC solution containing stabilizer. Luminescence was detected on a plate reader according to manufacturer's instructions.
(§3) For certain compounds, the assay was run in a 96-well format, with the following modifications: • 190 μL, instead of 50 μL, of cells were added to each well, to provide 50,000 cells/well, instead of 10,000 cells/well, • Cells were incubated for 6 days, instead of 5 days, • 25 μL, instead of 20 μL, of cell supernatant was added to the white-walled plate for QUANT-LUC treatment; and • 25 μL, instead of 30 μL, of CellTiter-Glo was added to assess cell viability.
Percent inhibition of interferon was calculated using the following analysis: (Average DMSO-Sample)/(Average DMSO-Average 30 μM control reagent)*100. The control reagent for inhibition of interferon was a specific nucleoside reverse-transcriptase inhibitor with molecular weight <600 a.m.u. Percent induction of interferon was calculated using the following analysis: (Sample-Average DMSO)/(10 μM control reagent-Average DMSO)*100. The control reagent for induction of interferon was compound 8 (4′-ethynyl-2-chloro-2′-deoxyadenosine).

[2] = biological target: T1, LINE1 reverse transcriptase (Homo sapiens, UniProt O00370); test: Transient artificial-intron Cis LINE1 reporter assay; parameters: expressed in transfected cells; settings: HEK 293 cells; ratio FLuc/RLuc reports LINE1 activity; tested up to 100 μM; read-out: IC50 for inhibiting FLuc luminescence
T1 sequence (O00370 whole entry, looked up): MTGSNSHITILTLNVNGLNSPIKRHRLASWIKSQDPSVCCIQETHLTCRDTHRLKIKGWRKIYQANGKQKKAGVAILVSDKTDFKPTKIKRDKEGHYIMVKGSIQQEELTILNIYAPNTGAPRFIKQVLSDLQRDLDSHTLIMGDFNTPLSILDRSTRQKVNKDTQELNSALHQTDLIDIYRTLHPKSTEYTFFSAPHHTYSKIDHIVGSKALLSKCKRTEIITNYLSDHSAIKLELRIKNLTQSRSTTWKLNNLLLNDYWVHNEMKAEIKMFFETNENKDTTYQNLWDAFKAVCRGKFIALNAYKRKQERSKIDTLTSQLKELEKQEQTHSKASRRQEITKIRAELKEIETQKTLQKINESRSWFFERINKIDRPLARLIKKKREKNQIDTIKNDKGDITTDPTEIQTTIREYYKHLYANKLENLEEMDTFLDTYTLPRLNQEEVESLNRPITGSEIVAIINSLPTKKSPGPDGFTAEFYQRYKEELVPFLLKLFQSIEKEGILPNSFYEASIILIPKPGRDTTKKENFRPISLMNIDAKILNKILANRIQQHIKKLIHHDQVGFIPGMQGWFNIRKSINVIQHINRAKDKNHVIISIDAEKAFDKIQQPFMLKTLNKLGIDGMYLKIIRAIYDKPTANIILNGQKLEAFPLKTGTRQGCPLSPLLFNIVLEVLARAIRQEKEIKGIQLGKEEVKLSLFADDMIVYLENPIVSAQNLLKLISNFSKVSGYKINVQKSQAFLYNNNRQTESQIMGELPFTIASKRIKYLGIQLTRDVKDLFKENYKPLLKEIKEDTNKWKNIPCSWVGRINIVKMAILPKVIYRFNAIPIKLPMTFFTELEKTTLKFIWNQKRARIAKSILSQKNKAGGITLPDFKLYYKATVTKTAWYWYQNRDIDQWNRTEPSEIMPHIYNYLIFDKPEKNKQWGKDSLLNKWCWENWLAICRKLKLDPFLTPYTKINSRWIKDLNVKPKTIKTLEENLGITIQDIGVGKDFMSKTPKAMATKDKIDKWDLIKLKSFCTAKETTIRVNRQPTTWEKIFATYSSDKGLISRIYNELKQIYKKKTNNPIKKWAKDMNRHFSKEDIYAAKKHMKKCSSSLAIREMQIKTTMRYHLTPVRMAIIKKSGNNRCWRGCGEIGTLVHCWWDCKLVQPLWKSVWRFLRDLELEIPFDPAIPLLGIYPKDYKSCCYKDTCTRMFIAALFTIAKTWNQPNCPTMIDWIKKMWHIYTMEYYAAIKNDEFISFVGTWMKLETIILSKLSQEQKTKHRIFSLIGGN
Experimental: Intron-disrupted Firefly luciferase (FLuc) expression cassettes were generated as described by Xie, Y. et al. “Characterization of L1 retrotransposition with high-throughput dual-luciferase assays,” Nucleic Acid Res. (2011) Vol. 39, No. 3, e16. In addition, the plasmid contained an intact Renilla luciferase (RLuc) expression cassette on the vector backbone, in order to normalize transfection efficiency and measure potential cell toxicity.
HEK 293 cells were seeded in 96-well plates at 1,000 cells/well in 55 μL and grown for 24 hours. Cells were transfected with FuGeneHD (Promega) following the manufacturer's protocol. Each well received 0.133 ng plasmid, 0.4 μL FuGeneHD reagent, and 4.5 μL GlutaMAX-I-supplemented Opti-MEM I reduced-serum medium (Invitrogen). Cells were simultaneously treated with test compound serially diluted starting at 100 μM in a 3-fold dilution dose response.
Luminescence was measured using the Dual-Glo Luciferase Assay System (Promega) following the manufacturer's instructions. The ratio between FLuc and RLuc gene expression was used to report LINE1 activity.

[3] = biological target: T1, LINE1 reverse transcriptase; test: Stable artificial-intron Cis LINE1 reporter assay; parameters: expressed in transfected cells; settings: HeLa L1 artificial-intron reporter cells, doxycycline-induced, 72 h, Firefly luciferase activity
Description: A stable HeLa Tet-On 3G (Takara, cat no 631183) cell line expressing a bi-directional inducible LINE1 construct was generated as described in Xie, Y. et al. “Cell division promotes efficient retrotransposition in a stable L1 reporter cell line,” Mobile DNA (2013) 4:10. Single cell clones were screened for high Luciferase expression and the highest expression Firefly expressing clone was chosen for compound testing.
Test compounds were serially diluted in DMSO and spotted in 96-well plates. Subsequently the HeLa L1 artificial-intron reporter cells were plated into the compound-containing wells (8,000 cells/well), and the cells were induced for reporter expression with doxycycline (Sigma cat no D9891) at a final concentration of 500 ng/mL. Luminescence was measured 72 h after plating using the Dual-Glo Luciferase Assay System (Promega cat no E2940) following the manufacturer's instructions. The Firefly Luciferase activity (normalized against its activity in a control well without test compound) was used to report LINE1 activity.

[4] = test system: THP1-Dual™ KO-TREX1 cells; test: CellTiter-Glo cell viability in THP1-Dual KO-TREX1 cells; settings: Homo sapiens, 120 h, CellTiter-Glo inhibition of cell viability, after five days of treatment, read-out: CTG IC50
Experimental: as §1, §2, §3
The remaining cells were assessed for cell viability by adding 30 μl of CellTiter-Glo (Promega, G9683) solution to each well, and placed on a shaker for 10 minutes at room temperature. Luminescence was detected on a plate reader, according to manufacturer's instructions. Percent inhibition of cell viability using CellTiter-Glo was calculated using the following analysis: (Average DMSO-Sample)/(Average DMSO-Average 20 μM control reagent)*100. The control reagent was Z-Leu-Leu-leucinal (see, for example, https://pubchem.ncbi.nlm.nib.gov/compound/462382).

[5] = THP-1, 120 h, inducers of IFN, in the presence of 1 μM 5-aza-2′-deoxycytidine, five days
[6] = THP-1, another experiment testing the same compound (not the one of Table 7)
[7] = THP-1, 120 h, in the presence of 1 μM 5-aza-2′-deoxycytidine, five days

IC50 [2] [µM] | IC50 [3] | EC50 [1, 5] [µM] | IC50 [4] [µM] | SMILES | also measured
0.0083 | ≤ 50 nM | – | – | C#C[C@]1(CO)O[C@@H](n2cnc3c(N)nc(Cl)nc32)C[C@@H]1O [Compound 8, 4′-ethynyl-2-chloro-2′-deoxyadenosine, reference compound] | change in IFN levels (figure) [1]: induction of IFN
– | ≤ 50 nM | 1 to 10 | > 10 | C#C[C@]1(COP(=O)(O)N[C@H](C)C(=O)OC(C)C)O[C@@H](n2cnc3c(N)nc(Cl)nc32)C[C@@H]1O [Compound I-48] | Concentration at Max Induct. [1]: 10 µM; Maximum IFN Induction ([1]; five days): > (values from 1.00 to less than 1.50)
– | 50 to 500 nM | – | – | C#C[C@@]12COP(=O)(OC(C)C)O[C@H]1C[C@H](n1cnc3c(N)nc(Cl)nc31)O2 (some centres unmarked) [IV-1] | –
– | 50 to 500 nM | > 10 | – | C#C[C@@]12COP(=O)(N[C@H](C)C(=O)OC(C)C)O[C@H]1C[C@H](n1cnc3c(N)nc(Cl)nc31)O2 (some centres unmarked) [IV-5] | –
– | 50 to 500 nM | – | 3.1 | C#C[C@@]12COP(=O)(N[C@@H](C)C(=O)OC(C)C)O[C@H]1C[C@H](n1cnc3c(N)nc(Cl)nc31)O2 (stereo partly drawn) [IV-6, isopropyl (2S)-2-{[(4aR,6R,7aS)-6-(6-amino-2-chloropurin-9-yl)-4a-ethynyl-2-oxo-tetrahydro-2lambda5-furo[3,2-d][1,3,2]dioxaphosphinin-2-yl]amino}propanoate] | IC50 [1, 7]: < 1000 nM
– | ≤ 50 nM | – | – | C#C[C@@]12COP(=O)(OC(C)C)O[C@H]1C[C@H](n1cnc3c(N)nc(F)nc31)O2 (some centres unmarked) [IV-10] | –
– | 50 to 500 nM | – | > 10 | C#C[C@@]12COP(=O)(N[C@H](C)C(=O)OC(C)C)O[C@H]1C[C@H](n1cnc3c(N)nc(F)nc31)O2 (some centres unmarked) [IV-12] | IC50 [1, 7]: 1000 to 5000 nM
– | 50 to 500 nM | – | 2.5 | C#C[C@@]12COP(=O)(N[C@@H](C)C(=O)OC(C)C)O[C@H]1C[C@H](n1cnc3c(N)nc(F)nc31)O2 (some centres unmarked) [IV-13] | IC50 [1, 7]: < 1000 nM

The next lines start with the compound.

SMILES | IC50 [2] [µM] | IC50 [3] | EC50 [1, 5] [µM] | IC50 [4] [µM] | also measured
C#C[C@]1(CO)O[C@@H](n2cnc3c(N)ncnc32)C[C@@H]1O [4′-ethynyl-2′-deoxyadenosine, reference compound] | 0.041 | ≤ 50 nM | – | – | change in IFN levels (figure) [1]: induction of IFN
Cc1cn([C@H]2C[C@H](N=[N+]=[N-])[C@@H](CO)O2)c(=O)[nH]c1=O [AZT (zidovudine), Zidovudine, reference compound] | > 100 | > 500 nM | – | – | –
C#C[C@]1(CO[P@@](=O)(N[C@@H](C)C(=O)OC(C)C)Oc2ccccc2)O[C@@H](n2cnc3c(N)nc(Cl)nc32)C[C@@H]1O [Compound I-1, Isopropyl ((S)-(((2R,3S,5R)-5-(6-amino-2-chloro-9H-purin-9-yl)-2-ethynyl-3-hydroxytetrahydrofuran-2-yl)methoxy)(phenoxy)phosphoryl)-L-alaninate] | – | 50 to 500 nM and ≤ 50 nM | 1 to 10 | > 10 | Concentration at Max Induct. [1]: 10 µM; Maximum IFN Induction ([1]; five days): >> (values from 1.50 to 2.00)
C#C[C@]1(CO[P@@](=O)(N[C@@H](C)C(=O)OC(C)C)Oc2ccccc2)O[C@@H](n2cnc3c(N)nc(F)nc32)C[C@@H]1O [Compound I-18] | – | 50 to 500 nM | > 10 | – | –
C#C[C@]1(COP(=O)(O)N[C@@H](C)C(=O)OC(C)C)O[C@@H](n2cnc3c(N)nc(Cl)nc32)C[C@@H]1O [Compound I-47, [(2R,3S,5R)-5-(6-amino-2-chloropurin-9-yl)-2-ethynyl-3-hydroxyoxolan-2-yl]methoxy([(2S)-1-isopropoxy-1-oxopropan-2-yl]amino)phosphinic acid] | – | ≤ 50 nM | 1 to 10 | > 10 | EC50 ([1]; THP-1, experiment depicted in FIG. 11 / FIG. 12): < 1 µM; EC50 [1, 6]: > 10 µM; Concentration at Max Induct. [1]: 10 µM; Maximum IFN Induction ([1]; five days): >>> (values greater than 2.00)
C#C[C@]1(COP(=O)(O)N[C@@H](C)C(=O)OC(C)C)O[C@@H](n2cnc3c(N)nc(F)nc32)C[C@@H]1O [Compound I-49] | – | ≤ 50 nM | > 10 | – | –
C#C[C@]1(COP(=O)(O)N[C@H](C)C(=O)OC(C)C)O[C@@H](n2cnc3c(N)nc(F)nc32)C[C@@H]1O [Compound I-50] | – | 50 to 500 nM | – | – | –
C#C[C@]1(CO[P@](=O)(N[C@@H](C)C(=O)OC(C)C)Oc2ccccc2)O[C@@H](n2cnc3c(N)nc(F)nc32)C[C@@H]1O [Compound I-54] | – | ≤ 50 nM | < 1 | > 10 | EC50 [1, 6]: > 10 µM
C#C[C@]1(COP(=O)(N[C@@H](C)C(=O)OC(C)C)OCOC(=O)OC(C)C)O[C@@H](n2cnc3c(N)nc(Cl)nc32)C[C@@H]1O (stereo partly drawn) [I-14 and I-15, isopropyl (2S)-2-({[(2R,3S,5R)-5-(6-amino-2-chloropurin-9-yl)-2-ethynyl-3-hydroxyoxolan-2-yl]methoxy([(isopropoxycarbonyl)oxy]methoxy)phosphoryl}amino)propanoate] | – | > 500 nM | – | – | –
Nc1ccn([C@H]2CO[C@@H](CO)S2)c(=O)n1 [apricitabine] | > 100 | – | – | – | –
Nc1ccn([C@@H]2CS[C@H](CO)O2)c(=O)n1 [lamivudine (3TC), Lamivudine, reference compound] | > 100 | > 500 nM | – | – | –
Nc1nc(=O)c2ncn([C@@H]3C[C@H](CO)[C@H]3CO)c2[nH]1 [lobucavir, reference compound] | > 100 | > 500 nM | – | – | –
